Data from ChEMBL document CHEMBL3508140 (2016).

Experiments:
[1] = (§1) Excretory balance of radioactivity in faeces following intravenous 14C-epirubicin at 0.45 ug.eq.Kg-1 dose in rat; type: ADME, organism-based, SD, Feces; parameters: dose 0.45 ug.eq.Kg-1, dosed compound id 2.46808e+06, dosed compound name 14C-Epirubicin, route intravenous, sampling time 0-8 h, study doses 0.45 ug.eq.Kg-1; conditions: in vivo
[2] = Decrease in leukocytes observed following reference intravenous doxorubicin at 1 mg.Kg-1 per week in rat; type: toxicity, organism-based, SD, Blood; parameters: dose 1 mg.Kg-1, dosed compound id 2.46809e+06, dosed compound name Doxorubicin, dose level High, gender Mixed, regimen Once per week, route intravenous, sampling time 36 Week, study doses 0/0.3/0.6/1 mg.Kg-1; conditions: in vivo
[3] = (§2) Excretory balance of radioactivity in bile following intravenous 14C-epirubicin at 1 mg.Kg-1 dose in rat; type: ADME, organism-based, SD; parameters: dose 1 mg.Kg-1, dosed compound id 2.46808e+06, dosed compound name 14C-Epirubicin, route intravenous, sampling time 0-8 h; conditions: in vivo
[4] = (§3) Excretory balance of radioactivity in bile following intravenous 14C-epirubicin at 0.45 ug.eq.Kg-1 dose in rat; type: ADME, organism-based, SD; parameters: dose 0.45 ug.eq.Kg-1, dosed compound id 2.46808e+06, dosed compound name 14C-Epirubicin, route intravenous, sampling time 0-2 h, study doses 0.45 ug.eq.Kg-1; conditions: in vivo
[5] = as §1; type: ADME, organism-based, SD, Feces; parameters: dose 0.45 ug.eq.Kg-1, dosed compound id 2.46808e+06, dosed compound name 14C-Epirubicin, route intravenous, sampling time 0-24 h, study doses 0.45 ug.eq.Kg-1; conditions: in vivo
[6] = (§4) Excretory balance of radioactivity in urine following intravenous 14C-epirubicin at 1 mg.Kg-1 dose in rat; type: ADME, organism-based, SD; parameters: dose 1 mg.Kg-1, dosed compound id 2.46808e+06, dosed compound name 14C-Epirubicin, route intravenous, sampling time 0-48 h; conditions: in vivo
[7] = as §4; type: ADME, organism-based, SD; parameters: dose 1 mg.Kg-1, dosed compound id 2.46808e+06, dosed compound name 14C-Epirubicin, route intravenous, sampling time 0-4 h; conditions: in vivo
[8] = (§5) Excretory balance of radioactivity in faeces following intravenous 14C-epirubicin at 1 mg.Kg-1 dose in rat; type: ADME, organism-based, SD, Feces; parameters: dose 1 mg.Kg-1, dosed compound id 2.46808e+06, dosed compound name 14C-Epirubicin, route intravenous, sampling time 0-12 h; conditions: in vivo
[9] = (§6) Excretory balance of radioactivity in urine following intravenous 14C-epirubicin at 0.45 ug.eq.Kg-1 dose in rat; type: ADME, organism-based, SD; parameters: dose 0.45 ug.eq.Kg-1, dosed compound id 2.46808e+06, dosed compound name 14C-Epirubicin, route intravenous, sampling time 0-8 h, study doses 0.45 ug.eq.Kg-1; conditions: in vivo
[10] = as §3; type: ADME, organism-based, SD; parameters: dose 0.45 ug.eq.Kg-1, dosed compound id 2.46808e+06, dosed compound name 14C-Epirubicin, route intravenous, sampling time 0-4 h, study doses 0.45 ug.eq.Kg-1; conditions: in vivo
[11] = as §5; type: ADME, organism-based, SD, Feces; parameters: dose 1 mg.Kg-1, dosed compound id 2.46808e+06, dosed compound name 14C-Epirubicin, route intravenous, sampling time 0-6 h; conditions: in vivo
[12] = as §4; type: ADME, organism-based, SD; parameters: dose 1 mg.Kg-1, dosed compound id 2.46808e+06, dosed compound name 14C-Epirubicin, route intravenous, sampling time 0-1 h; conditions: in vivo
[13] = as §2; type: ADME, organism-based, SD; parameters: dose 1 mg.Kg-1, dosed compound id 2.46808e+06, dosed compound name 14C-Epirubicin, route intravenous, sampling time 0-24 h; conditions: in vivo
[14] = as §6; type: ADME, organism-based, SD; parameters: dose 0.45 ug.eq.Kg-1, dosed compound id 2.46808e+06, dosed compound name 14C-Epirubicin, route intravenous, sampling time 0-6 h, study doses 0.45 ug.eq.Kg-1; conditions: in vivo
[15] = Excretion of radioactivity in urine following single intravenous 14C-epirubicin at 75 mg.m-2 dose in cancer patients; type: ADME, organism-based; parameters: dose 75 mg.m-2, dosed compound id 2.46808e+06, dosed compound name 14C-Epirubicin, regimen Single, sampling time 10 Day; conditions: human, in vivo, at 75 mg/m2
[16] = as §2; type: ADME, organism-based, SD; parameters: dose 1 mg.Kg-1, dosed compound id 2.46808e+06, dosed compound name 14C-Epirubicin, route intravenous, sampling time 0-4 h; conditions: in vivo
[17] = as §2; type: ADME, organism-based, SD; parameters: dose 1 mg.Kg-1, dosed compound id 2.46808e+06, dosed compound name 14C-Epirubicin, route intravenous, sampling time 0-1 h; conditions: in vivo
[18] = as §3; type: ADME, organism-based, SD; parameters: dose 0.45 ug.eq.Kg-1, dosed compound id 2.46808e+06, dosed compound name 14C-Epirubicin, route intravenous, sampling time 0-1 h, study doses 0.45 ug.eq.Kg-1; conditions: in vivo
[19] = as §3; type: ADME, organism-based, SD; parameters: dose 0.45 ug.eq.Kg-1, dosed compound id 2.46808e+06, dosed compound name 14C-Epirubicin, route intravenous, sampling time 0-24 h, study doses 0.45 ug.eq.Kg-1; conditions: in vivo
[20] = as §4; type: ADME, organism-based, SD; parameters: dose 1 mg.Kg-1, dosed compound id 2.46808e+06, dosed compound name 14C-Epirubicin, route intravenous, sampling time 0-12 h; conditions: in vivo
[21] = as §2; type: ADME, organism-based, SD; parameters: dose 1 mg.Kg-1, dosed compound id 2.46808e+06, dosed compound name 14C-Epirubicin, route intravenous, sampling time 0-2 h; conditions: in vivo
[22] = as §6; type: ADME, organism-based, SD; parameters: dose 0.45 ug.eq.Kg-1, dosed compound id 2.46808e+06, dosed compound name 14C-Epirubicin, route intravenous, sampling time 0-4 h, study doses 0.45 ug.eq.Kg-1; conditions: in vivo
[23] = as §5; type: ADME, organism-based, SD, Feces; parameters: dose 1 mg.Kg-1, dosed compound id 2.46808e+06, dosed compound name 14C-Epirubicin, route intravenous, sampling time 0-2 h; conditions: in vivo
[24] = as §2; type: ADME, organism-based, SD; parameters: dose 1 mg.Kg-1, dosed compound id 2.46808e+06, dosed compound name 14C-Epirubicin, route intravenous, sampling time 0-48 h; conditions: in vivo
[25] = as §4; type: ADME, organism-based, SD; parameters: dose 1 mg.Kg-1, dosed compound id 2.46808e+06, dosed compound name 14C-Epirubicin, route intravenous, sampling time 0-6 h; conditions: in vivo
[26] = as §1; type: ADME, organism-based, SD, Feces; parameters: dose 0.45 ug.eq.Kg-1, dosed compound id 2.46808e+06, dosed compound name 14C-Epirubicin, route intravenous, sampling time 0-2 h, study doses 0.45 ug.eq.Kg-1; conditions: in vivo
[27] = as §4; type: ADME, organism-based, SD; parameters: dose 1 mg.Kg-1, dosed compound id 2.46808e+06, dosed compound name 14C-Epirubicin, route intravenous, sampling time 0-24 h; conditions: in vivo
[28] = as §3; type: ADME, organism-based, SD; parameters: dose 0.45 ug.eq.Kg-1, dosed compound id 2.46808e+06, dosed compound name 14C-Epirubicin, route intravenous, sampling time 0-8 h, study doses 0.45 ug.eq.Kg-1; conditions: in vivo
[29] = as §1; type: ADME, organism-based, SD, Feces; parameters: dose 0.45 ug.eq.Kg-1, dosed compound id 2.46808e+06, dosed compound name 14C-Epirubicin, route intravenous, sampling time 0-48 h, study doses 0.45 ug.eq.Kg-1; conditions: in vivo
[30] = as §1; type: ADME, organism-based, SD, Feces; parameters: dose 0.45 ug.eq.Kg-1, dosed compound id 2.46808e+06, dosed compound name 14C-Epirubicin, route intravenous, sampling time 0-4 h, study doses 0.45 ug.eq.Kg-1; conditions: in vivo
[31] = as §2; type: ADME, organism-based, SD; parameters: dose 1 mg.Kg-1, dosed compound id 2.46808e+06, dosed compound name 14C-Epirubicin, route intravenous, sampling time 0-6 h; conditions: in vivo
[32] = as §2; type: ADME, organism-based, SD; parameters: dose 1 mg.Kg-1, dosed compound id 2.46808e+06, dosed compound name 14C-Epirubicin, route intravenous, sampling time 0-12 h; conditions: in vivo
[33] = as §3; type: ADME, organism-based, SD; parameters: dose 0.45 ug.eq.Kg-1, dosed compound id 2.46808e+06, dosed compound name 14C-Epirubicin, route intravenous, sampling time 0-6 h, study doses 0.45 ug.eq.Kg-1; conditions: in vivo
[34] = as §4; type: ADME, organism-based, SD; parameters: dose 1 mg.Kg-1, dosed compound id 2.46808e+06, dosed compound name 14C-Epirubicin, route intravenous, sampling time 0-8 h; conditions: in vivo
[35] = Excretion of radioactivity in faeces following single intravenous 14C-epirubicin at 75 mg.m-2 dose in cancer patients; type: ADME, organism-based, Feces; parameters: dose 75 mg.m-2, dosed compound id 2.46808e+06, dosed compound name 14C-Epirubicin, regimen Single, sampling time 10 Day; conditions: human, in vivo, at 75 mg/m2
[36] = as §5; type: ADME, organism-based, SD, Feces; parameters: dose 1 mg.Kg-1, dosed compound id 2.46808e+06, dosed compound name 14C-Epirubicin, route intravenous, sampling time 0-8 h; conditions: in vivo
[37] = as §5; type: ADME, organism-based, SD, Feces; parameters: dose 1 mg.Kg-1, dosed compound id 2.46808e+06, dosed compound name 14C-Epirubicin, route intravenous, sampling time 0-1 h; conditions: in vivo
[38] = as §6; type: ADME, organism-based, SD; parameters: dose 0.45 ug.eq.Kg-1, dosed compound id 2.46808e+06, dosed compound name 14C-Epirubicin, route intravenous, sampling time 0-24 h, study doses 0.45 ug.eq.Kg-1; conditions: in vivo
[39] = as §6; type: ADME, organism-based, SD; parameters: dose 0.45 ug.eq.Kg-1, dosed compound id 2.46808e+06, dosed compound name 14C-Epirubicin, route intravenous, sampling time 0-2 h, study doses 0.45 ug.eq.Kg-1; conditions: in vivo
[40] = as §1; type: ADME, organism-based, SD, Feces; parameters: dose 0.45 ug.eq.Kg-1, dosed compound id 2.46808e+06, dosed compound name 14C-Epirubicin, route intravenous, sampling time 0-6 h, study doses 0.45 ug.eq.Kg-1; conditions: in vivo
[41] = as §6; type: ADME, organism-based, SD; parameters: dose 0.45 ug.eq.Kg-1, dosed compound id 2.46808e+06, dosed compound name 14C-Epirubicin, route intravenous, sampling time 0-1 h, study doses 0.45 ug.eq.Kg-1; conditions: in vivo
[42] = as §3; type: ADME, organism-based, SD; parameters: dose 0.45 ug.eq.Kg-1, dosed compound id 2.46808e+06, dosed compound name 14C-Epirubicin, route intravenous, sampling time 0-48 h, study doses 0.45 ug.eq.Kg-1; conditions: in vivo
[43] = as §5; type: ADME, organism-based, SD, Feces; parameters: dose 1 mg.Kg-1, dosed compound id 2.46808e+06, dosed compound name 14C-Epirubicin, route intravenous, sampling time 0-4 h; conditions: in vivo
[44] = as §1; type: ADME, organism-based, SD, Feces; parameters: dose 0.45 ug.eq.Kg-1, dosed compound id 2.46808e+06, dosed compound name 14C-Epirubicin, route intravenous, sampling time 0-1 h, study doses 0.45 ug.eq.Kg-1; conditions: in vivo
[45] = as §4; type: ADME, organism-based, SD; parameters: dose 1 mg.Kg-1, dosed compound id 2.46808e+06, dosed compound name 14C-Epirubicin, route intravenous, sampling time 0-2 h; conditions: in vivo
[46] = as §5; type: ADME, organism-based, SD, Feces; parameters: dose 1 mg.Kg-1, dosed compound id 2.46808e+06, dosed compound name 14C-Epirubicin, route intravenous, sampling time 0-48 h; conditions: in vivo

COc1cccc2c1C(=O)c1c(O)c3c(c(O)c1C2=O)C[C@@](O)(C(=O)CO)C[C@@H]3O[C@H]1C[C@H](N)[C@@H](O)[C@H](C)O1 [EPIRUBICIN]
Radiolabel recovery [1]: OUTCOME = Not detectable
WBC_CHANGE [2]: 45%
Radiolabel recovery [3]: 28.39%
Radiolabel recovery [4]: 0.27%
Radiolabel recovery [5]: 26%
Radiolabel recovery [6]: 14.74%
Radiolabel recovery [7]: OUTCOME = Observed
Radiolabel recovery [8]: 1.77%
Radiolabel recovery [9]: 0.54%
Radiolabel recovery [10]: 2.01%
Radiolabel recovery [11]: 1.18%
Radiolabel recovery [12]: OUTCOME = Observed
Radiolabel recovery [13]: 38.44%
Radiolabel recovery [14]: OUTCOME = Observed
Radiolabel recovery [15]: 16%
Radiolabel recovery [16]: 22.93%
Radiolabel recovery [17]: 13.22%
Radiolabel recovery [18]: 0.06%
Radiolabel recovery [19]: 14.72%
Radiolabel recovery [20]: 8.56%
Radiolabel recovery [21]: 18.13%
Radiolabel recovery [22]: OUTCOME = Observed
Radiolabel recovery [23]: OUTCOME = Observed
Radiolabel recovery [24]: 47.72%
Radiolabel recovery [25]: 7.31%
Radiolabel recovery [26]: OUTCOME = Observed
Radiolabel recovery [27]: 12%
Radiolabel recovery [28]: 7.05%
Radiolabel recovery [29]: 48.78%
Radiolabel recovery [30]: OUTCOME = Observed
Radiolabel recovery [31]: 25.25%
Radiolabel recovery [32]: 30.19%
Radiolabel recovery [33]: 5.17%
Radiolabel recovery [34]: OUTCOME = Observed
Radiolabel recovery [35]: 24%
Radiolabel recovery [36]: OUTCOME = Observed
Radiolabel recovery [37]: OUTCOME = Observed
Radiolabel recovery [38]: 2.14%
Radiolabel recovery [39]: OUTCOME = Observed
Radiolabel recovery [40]: OUTCOME = Observed
Radiolabel recovery [41]: OUTCOME = Observed
Radiolabel recovery [42]: 17.32%
Radiolabel recovery [43]: OUTCOME = Observed
Radiolabel recovery [44]: OUTCOME = Observed
Radiolabel recovery [45]: OUTCOME = Observed
Radiolabel recovery [46]: 4.44%
